Test results: the Biogen ADME set (Fang et al. 2023)
Converted amounts (≈) assume the structure as drawn.

Details: for aqueous solubility: pH 6.8

MDR1-MDCK efflux ratio | aqueous solubility [µg/mL] | fraction unbound, human plasma | fraction unbound, rat plasma | intrinsic clearance, human liver microsomes [mL/min/kg] | intrinsic clearance, rat liver microsomes [mL/min/kg] | SMILES
4.26 | 0.85 (≈ 2.23 µM) |  |  |  |  | O=C1N=C(N2CCN(c3ccccc3)CC2)S/C1=C\c1ccc(O)cc1O
 |  |  |  | 327 | 1380 | Cc1cc(SCc2ccc(Cl)nc2)nc2ccccc12
53.3 | 2.2 (≈ 5.74 µM) | 0.363 | 0.231 | ≤ 4.74 | ≤ 10.7 | Cn1cc(-c2cn3nccc3c(-c3cnn([C@]4(CC#N)C[C@@H](C#N)C4)c3)n2)cn1
 | 53.4 (≈ 143 µM) |  |  | 131 | 504 | COc1cc2c(cc1OC)CN(CN1C(=O)c3cccc4cccc1c34)CC2
0.509 | 23.5 (≈ 96.2 µM) |  |  | 88.2 | 316 | Cc1n[nH]c(-c2c(C)c3cc(F)ccc3n2C)n1
0.408 |  |  |  | 66.7 | 283 | N#Cc1cc(Oc2ccc3c(c2)CCC3)ncn1
1.61 | 13.6 (≈ 34.7 µM) |  |  | 30 | 389 | CN(C)c1ccc(C(=O)N2CCN3C(=O)N(Cc4ccccc4)C(=O)[C@H]3C2)cc1
1.5 |  |  |  | 4.85 | 870 | O=C(c1n[nH]c2c1COCC2)N1CCC2(C=Cc3ccccc32)CC1
2.39 |  |  |  | 196 | 2510 | Cc1ccc2c(c1)cc(C(=O)N1CCOC(C(=O)N3CCc4ccccc4C3)C1)n2C (stereo not given)
33.3 |  |  |  | ≤ 4.74 | 495 | c1ccc2nc(N3CCCC4(CCNCC4)CC3)cnc2c1
0.63 | 53.3 (≈ 155 µM) |  |  | 16.5 | 215 | Cc1csc(N(C(=O)c2ccc(-n3cncn3)c(F)c2)C2CC2)n1
0.812 | 49.2 (≈ 161 µM) |  |  | 8.22 | 294 | CCOC(=O)N1CCC(Nc2nc3ccccc3s2)CC1
79.6 |  |  |  | 56.6 | 180 | Cn1cnnc1-c1cccc(NS(=O)(=O)c2ccc3c(c2)OCCCO3)c1
12.9 | 18.7 (≈ 53.2 µM) |  |  | 21.4 | 280 | CN1C(=O)N(CC(=O)Nc2ccccc2-c2ccccc2)C(=O)C1(C)C
0.468 | 6.1 (≈ 19.4 µM) |  |  | 78.5 | 90.1 | O=C(Nc1ccc(F)cc1F)N1CCn2c1nc1ccccc12
 | 0.1 (≈ 0.243 µM) |  |  |  |  | c1cn2cc(-c3ccc4cn[nH]c4c3)nc(Nc3ccc(N4CCOCC4)cc3)c2n1
0.179 | 2.34 (≈ 7.92 µM) |  |  | 35.7 | 305 | Cc1csc(NC(=O)c2ccc(-c3ccncc3)cc2)n1
99 | 18.5 (≈ 54.8 µM) |  |  | ≤ 4.74 | ≤ 10.7 | Clc1ccc(C2(c3ccc(-c4cn[nH]c4)cc3)CCNCC2)cc1
29.9 |  |  |  | 19.7 | 89.9 | Cc1cc(Nc2ccc(F)cn2)cc(C2CCN(C(=O)Cn3nc(C)ccc3=O)C2)n1 (stereo not given)
0.48 | 0.15 (≈ 0.543 µM) |  |  |  |  | COc1ccc2c(-c3ccccc3)cc3nnnn3c2c1
 |  |  |  | 23.1 | 180 | COCc1ncc(CN2CCC(Oc3ccccc3C)CC2)cn1
2.06 |  |  |  | ≤ 4.74 | 89.4 | CN(Cc1nncn1C)C1CCN(c2ccccc2F)CC1
0.87 |  |  |  | 8.62 | 200 | Cc1nccc(N(C)Cc2nc(-c3cccnc3)no2)n1
 | 39.1 (≈ 144 µM) |  |  |  |  | Cc1noc2nc(-c3ccccc3F)cc(C(=O)O)c12
78.4 |  |  |  | 46.1 | 381 | O=C1CCCN1CCCc1nc(Cc2c(Cl)cccc2Cl)n[nH]1
 |  |  |  | 67.5 | 565 | Cn1nccc1C(=O)NCCc1cc2nc(-c3cccs3)ccn2n1
0.389 | 47 (≈ 153 µM) |  |  | 42.2 | 1190 | COc1ccc(-c2cn3c4ccccc4nc3n2CCO)cc1

The remaining lines, values behind:

SMILES | MDR1-MDCK efflux ratio | aqueous solubility [µg/mL] | fraction unbound, human plasma | fraction unbound, rat plasma | intrinsic clearance, human liver microsomes [mL/min/kg] | intrinsic clearance, rat liver microsomes [mL/min/kg]
O=C(Nc1ccc2ccccc2n1)c1ccc(N2CCOC2=O)cc1 | 0.594 | 2.85 (≈ 8.55 µM) | 0.0281 | 0.0117 | 5.17 | 45.6
Cc1nc(C)c(C)c(NCc2cc(-c3ccc(F)cc3)no2)n1 | 0.906 | 37.5 (≈ 120 µM) |  |  | 20.3 | 242
COc1ccccc1-c1nc(C(=O)O)cs1 | 0.649 | 54.6 (≈ 232 µM) |  |  | ≤ 4.74 | ≤ 10.7
Cc1ccc(S(=O)(=O)NC(=O)c2c(C)cc3n2CCn2c(C)ccc2-3)cc1 |  | 33.1 (≈ 86.3 µM) |  |  |  | 
O=C(c1ccc(O)cc1)N1CCN(c2ncnc3c2CCC3)CC1 | 43.2 |  |  |  | 12.1 | 178
COc1ccc(-c2nnc(NC(=O)c3ccc4ccccc4c3)o2)cc1OC |  | 0.27 (≈ 0.719 µM) |  |  |  | 
C#C[C@@](C)(CC)NC(=O)c1cc(F)cnc1NC1CC(F)(F)C1 | 0.802 |  | 0.0469 | 0.0708 | 69.6 | 313
CCn1nc(Cc2ccc(OC)cc2)nc1Cc1sc(C)nc1C | 2.11 | 28.7 (≈ 83.9 µM) |  |  | 21.4 | 233
Cc1nc(CS(C)(=O)=O)sc1C(=O)Nc1ccccc1 |  |  |  |  | ≤ 4.74 | ≤ 10.7
Cc1nn(C(F)F)c(C)c1CC(=O)NCCNC(C)(C)C | 20.6 |  |  |  | ≤ 4.74 | 253
CC(=O)N1CCN([C@H]2CCN(C(=O)c3cc4cc(C)ccc4o3)CC[C@@H]2O)CC1 | 38.8 |  |  |  | 7.28 | 153
O=S(=O)(NCC1C2CC3CC(C2)CC1C3)C1CCOCC1 (stereo not given) |  | 58.2 (≈ 186 µM) |  |  |  | 
COCc1ccc(-c2nc3c([nH]2)c(C)nn3C2CCCCC2)o1 |  | 38 (≈ 121 µM) |  |  | 51.8 | 485
COc1ccccc1/C=C/CN1CCCC2(C1)OCCO2 | 0.549 |  |  |  | 17.7 | 2180
Cc1nc(C)c2c(C)c(C(=O)N(C)CCN3CCCC3)sc2n1 | 12.6 | 60.9 (≈ 183 µM) |  |  | ≤ 4.74 | 77.8
Cc1cccnc1NC(=O)Cc1coc2c(C)c(C)ccc12 | 0.636 | 74.7 (≈ 254 µM) |  |  | 124 | 4310

SMILES | MDR1-MDCK efflux ratio | aqueous solubility [µg/mL] | fraction unbound, human plasma | fraction unbound, rat plasma | intrinsic clearance, human liver microsomes [mL/min/kg] | intrinsic clearance, rat liver microsomes [mL/min/kg]
O=C(c1ccc(NS(=O)(=O)c2cccc3cnccc23)cc1)N1CCCC1 | 79.1 |  |  |  | 26.7 | 562
Cc1ccc(Cn2ccn(-c3ccc(F)c(F)c3)c(=O)c2=O)cc1 | 0.671 | 0.35 (≈ 1.07 µM) |  |  |  | 
COc1ccc2c(c1)C(=O)N(c1ccccc1OC)C(=O)C2 |  | 40.3 (≈ 135 µM) |  |  |  | 
CC(C)(C)c1csc(CCNC(=O)N2CCSCC2)n1 | 1.14 | 69.1 (≈ 220 µM) |  |  | 127 | 956
CCONC(=O)Cc1coc2c(C)c(C)ccc12 |  | 34.2 (≈ 138 µM) |  |  | 89.7 | 1060
COc1cc(C=C2C(=O)NN(c3ccccc3)C2=O)ccc1OCC(N)=O |  | 29.7 (≈ 80.7 µM) |  |  | 158 | 277
Cc1cnc(Cl)nc1-c1ccc(N(Cc2ccc(CNC(=O)C(F)F)cc2)C(=O)c2ccc(O)cc2O)cc1 | 54.7 | 27.6 (≈ 49.8 µM) |  |  | 41.3 | 84.6
O=C1N=C(N2CCCCN2)S/C1=C\c1ccc(F)cc1O | 1.69 | 0.9 (≈ 2.93 µM) |  |  |  | 
Cc1ccc(Cl)c(OC[C@@]2(O)CN(C3CCC3)CC[C@@H]2O)c1 | 0.695 |  |  |  | 166 | 2290
Cc1cc(C(=O)N(C)Cc2ccsc2)no1 | 0.653 | 34.1 (≈ 144 µM) |  |  | 11 | 241
Cc1nc2ccccc2c(C(=O)O)c1C |  |  |  |  | ≤ 4.74 | ≤ 10.7
C(=C\c1ccccc1)/CNCc1ccc2c(c1)OCO2 | 0.337 | 40.1 (≈ 150 µM) |  |  | 38.9 | 573
C[C@@H](CO)Nc1nc(C(F)(F)F)nc2[nH]cnc12 | 6.72 | 40 (≈ 153 µM) |  |  | ≤ 4.74 | ≤ 10.7
Cc1nc2cc(NC(=O)CCc3c(C)nc4c(c(C)nn4C)c3C)ccc2o1 | 13.5 | 9.3 (≈ 24.6 µM) |  |  | 24.2 | 1110
CCCN(CCc1cccs1)[C@H]1CCc2c(O)cccc2C1 | 0.512 |  |  |  | 98.1 | 3810
COc1cc(C(=O)O)c(N)c(OC)c1OC | 1.69 | 53.9 (≈ 237 µM) |  |  | ≤ 4.74 | ≤ 10.7
